Experiments:
[1] = target: T1, recombinant human MNL phosphodiesterase type IV B (Homo sapiens, UniProt Q07343); experiment: Inhibition of recombinant human mononuclear lymphocyte (MNL) phosphodiesterase type IV B produced in insect cells with a baculovirus vector; assay type: biochemical; details: recombinant human MNL PDE IV B; 0.8 μM 3H-cAMP, pH 8, 37° C.; calculated graphically
T1 construct: made in house; host or cells: insect cells infected with recombinant baculovirus
Protocol: Inhibition of recombinant human mononuclear lymphoctye (MNL) phosphodiesterase type IV B produced in insect cells with a baculovirus vector
The alleviating and/or curing effect of the instant compounds on allergic and atopic diseases was assessed by an in vitro assay system to detect an inhibiting effect on the recombinant human MNL phosphodiesterase type IV B.
Seventy-two hours after infection with recombinant baculovirus, the insect cells were harvested and pelleted at 500 g for 5 minutes. The cells were lysed in 10 ml lysis-buffer consisting of 20 mM Tris, 10 mM EGTA, 2 mM Na2EDTA, 1% Triton-X-100, 1 mM Na3VO4, 10 mM NaF, 2 μg/ml of leupeptine, pepstatine and aprotinine, 0.3 μg/ml benzamidine and 100 μg/ml TPCK pH 7.5. After 5 minutes on ice, solubilized cells were centrifuged at 4000 rpm for 15 minutes at 4° C. The resulting supernatant was filtered through a 0.45 μm filter (Millipore) and brought to TBS buffer (50 mM Tris, 150 mM NaCl pH 7.4).
After washing the column with equilibration buffer, PDE IV was eluted in 1.5 ml fractions containing 37.5 μl 1M Tris pH 8. The fractions were dialyzed overnight against 20 mM Tris, 2 mM Na2EDTA and 400 mM NaCl pH 7.5 and tested for PDE IV activity. Identification was done on SDS PAGE and Western Blot (anti-FLAG-M2). Active fractions were pooled, brought to 10% glycerol and stored at −70° C.
The incubation mixture (pH 8) (200 μl) contained 20 mM Tris, 10 mM magnesium sulphate, 0.8 μM ^3H-cAMP (310 mCi/mmole) and the phosphodiesterase type IV, the amount depending on the enzymatic activity.
When the effect of different compounds on phosphodiesterase activity was tested, the medium without cAMP was incubated with the compound(s) or its carrier (DMSO-1% final concentration) for 5 min. The enzymatic reaction was started by addition of ^3H-cAMP and stopped 10 min later after transferring the microtiter-plate in a waterbath at 100° C. for 5 min. After cooling to room temperature, alkaline phosphatase (0.25 μg/ml) was added and the mixture was incubated at 37° C. for 20 min. 100 μl of the mixture was subsequently applied to a GF-B filter-microtiter-plate (Millipore) filled with 300 μl DEAE-Sephadex-A25 suspension. The plate was washed 3 times with 75 μl 20 mM Tris pH 7.5 and the filtrates were collected for counting in the Packard Top Count scintillation counter.
The inhibiting effect of the present compounds on recombinant human MNL phosphodiesterase PDE IV B was measured at different concentrations of the instant compounds. The IC50 values (expressed in M) were calculated graphically from the thus obtained inhibition values.

[2] = tested on: dextran-induced oedema formation in mouse ear; experiment: Dextran-induced oedema formation in mouse ear; assay type: in vivo, Male Swiss mice; details: vs background blueing value; for inhibition in vivo at 5 mg/kg / inhibition in vivo at 2.5 mg/kg: Mus musculus, 1 h, read-out: % inhibition of the extravasation of the dye
Protocol: Dextran-induced oedema formation in mouse ear Systemic injection of dextran T500 in normal, non-sensitized mice elicits increased vascular permeability, leading to extravasation and oedema of the extremities. When dextran is injected together with a blue dye, blueing of the ears is the most prominent feature of oedematous response. Male Swiss mice weighting 24-26 g were orally pretreated with the test compound dissolved in PEG-200 at different concentrations or solvent. One hour later, the mice were given an intravenous injection with an isotonic saline solution containing 12 mg/ml dextran T500 and 2.6 mg/ml pontamine sky-blue dye, in a volume of 0.1 ml per 10 g body weight. One hour and forty-five minutes later, the animals are sacrificed by ether and their ears removed. Extraction and quantification of the extravasated dye is done as described by Van Wauwe and Goossens (Drug Dev. Res. 1986, 8, 213-218). The extravasation of the dye is characterized by the blueing value which is defined as the concentration of the extracted dye in both ears. The background blueing value was determined once as the mean blueing value obtained by injecting a group of mice with a saline solution containing only dextran T500 and the blue dye. Table 6 lists the percentage inhibition of the extravasation of the dye when compared with the background extravasation of the dye when the test compound was administered at a dose of 5 mg/kg. The test compounds indicated by an asterisk (*) were tested at a dose of 2.5 mg/kg

[3] = oral dose of 5 mg/kg in PEG-200, one hour before i.v. dextran T500/pontamine sky-blue
[4] = asterisk (*): oral dose of 2.5 mg/kg in PEG-200, one hour before i.v. dextran T500/pontamine sky-blue
[5] = oral dose of 5 mg/kg in PEG-200, one hour before i.v. dextran T500/pontamine sky-blue, 5 mg/kg

T1 sequence (Q07343 whole entry): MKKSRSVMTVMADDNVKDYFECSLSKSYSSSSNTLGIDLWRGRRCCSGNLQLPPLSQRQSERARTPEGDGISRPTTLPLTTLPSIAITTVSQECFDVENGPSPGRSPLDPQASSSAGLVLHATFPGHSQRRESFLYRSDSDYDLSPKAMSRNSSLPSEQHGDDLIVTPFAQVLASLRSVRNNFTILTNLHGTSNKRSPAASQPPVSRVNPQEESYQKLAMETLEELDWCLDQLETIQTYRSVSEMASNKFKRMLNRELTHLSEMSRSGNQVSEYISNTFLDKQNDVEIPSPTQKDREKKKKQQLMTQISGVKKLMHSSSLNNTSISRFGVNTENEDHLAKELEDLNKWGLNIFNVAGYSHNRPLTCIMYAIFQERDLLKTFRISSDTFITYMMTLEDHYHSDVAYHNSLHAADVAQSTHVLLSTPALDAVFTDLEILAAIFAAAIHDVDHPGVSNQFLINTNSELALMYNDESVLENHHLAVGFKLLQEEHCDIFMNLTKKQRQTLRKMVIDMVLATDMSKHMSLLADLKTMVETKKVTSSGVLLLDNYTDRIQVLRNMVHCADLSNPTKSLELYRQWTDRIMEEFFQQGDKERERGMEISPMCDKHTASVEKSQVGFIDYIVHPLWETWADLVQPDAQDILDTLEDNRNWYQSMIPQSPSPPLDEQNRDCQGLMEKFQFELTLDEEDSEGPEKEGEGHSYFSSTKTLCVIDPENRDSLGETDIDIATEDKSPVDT

Row | Molecule | IC50 [1] | inhibition in vivo at 5 mg/kg [2, 3] | also measured
1 | COc1ccc(C(C)Cn2cc[nH]c2=O)cc1OC1CCCC1 (racemic) [Compound 1, (±)-1-[2-[3-(cyclopentyloxy)-4-methoxyphenyl]propyl]-1,3-dihydro-2H-imidazol-2-one] | 4.8 nM | 83.1% | 
2 | COc1ccc(C(N)CN2CCN(Cc3ccccc3)C2=O)cc1OC (racemic) [Compound 11, (±)-1-[2-amino-2-(3,4-dimethoxyphenyl)ethyl]-3-(phenylmethyl)-2-imidazolidinone] |  | 26.8% | 
3 | COc1ccc(C(O)Cn2cc[nH]c2=O)cc1O (racemic) [Compound 19, (±)-1,3-dihydro-1-[2-hydroxy-2-(3-hydroxy-4-methoxyphenyl)ethyl]-2H-imidazol-2-one] |  |  | inhibition in vivo at 2.5 mg/kg [2, 4]: 49.4%
4 | COc1ccc(CCCn2cc[nH]c2=O)cc1OC [Compound 85, 1,3-dihydro-1-[3-(3,4-dimethoxyphenyl)propyl]-2H-imidazol-2-one] |  | 31.6% | 
5 | O=c1[nH]ccn1CC(F)c1ccc(OC(F)F)c(OCC2CC2)c1 (racemic) [Compound 20, (±)-1-[2-[3-(cyclopropylmethoxy)-4-(difluoromethoxy)phenyl-2-fluoroethyl]-1,3-dihydro-2H-imidazol-2-one] |  |  | % inhibition of the extravasation of the dye [2, 4]: 94.4%
6 | COc1ccc(C(O)CN2CCNC2=O)cc1OC (racemic) [Compound 13, ±)-1-[2-(3,4-dimethoxyphenyl)-2-hydroxy-ethyl]-2-imidazolidinone] |  |  | % inhibition of the extravasation of the dye [2, 3]: 36.3%
7 | CCOC(=O)Cn1ccn(C(C)c2ccc(OC)c(OC3CCCC3)c2)c1=O (racemic) [Compound 9, (±)-ethyl 3-[1-[3-(cyclopentyloxy)-4-methoxy-phenyl]ethyl]-2,3-dihydro-2-oxo-1H-imidazole-1-acetate] |  | 10.2% | 
8 | COc1ccc(C(C)Cn2cc[nH]c2=O)cc1OC1CCCC1 (stereo not shown) [Compound 6, (A)-1-[2-[3-(cyclopentyloxy)-4-methoxy-phenyl]propyl]-1,3-dihydro-2H-imidazol-2-one] | 4.1 nM |  | % inhibition of the extravasation of the dye [2, 5]: 85.1%
9 | COc1ccc(C(C)Cn2cc[nH]c2=O)cc1OCC1CC1 (stereo not shown) [Compound 23, (B)-1-[2-[3-(cyclopropylmethoxy)-4-methoxyphenyl]propyl]-1,3-dihydro-2H-imidazol-2-one] |  |  | % inhibition of the extravasation of the dye [2, 3]: 72.1%
10 | COc1ccc(C(CN2CCNC2=O)NC(C)=O)cc1OC (racemic) [Compound 16, (±)-N-[1-(3,4-dimethoxyphenyl)[2-(2-oxo-1-imidazolidinyl)-ethyl]acetamide] |  |  | % inhibition of the extravasation of the dye [2, 3]: 10.8%
11 | COc1cc(Br)c(CCn2cc[nH]c2=O)cc1OC [Compound 81, 1,3-dihydro-2-[2-(2-bromo-4,5-dimethoxyphenyl)ethyl]-2H-imidazol-2-one] |  |  | % inhibition of the extravasation of the dye [2, 3]: 34.1%
12 | COc1ccc(Cn2cc[nH]c2=O)cc1OC [Compound 84, 1,3-dihydro-1-[(3,4-dimethoxyphenyl)methyl]-2H-imidazol-2-one] |  | 46.5% | 
13 | COc1ccc(C(C)Cn2cc[nH]c2=O)cc1OC1CCCC1 (stereo not shown) [Compound 7, (B)-1-[2-[3-(cyclopentyloxy)-4-methoxyphenyl]propyl]-1,3-dihydro-2H-imidazol-2-one] | 43 nM |  | % inhibition of the extravasation of the dye [2, 5]: 67.0%

More lines, main results first:

Row | IC50 [1] | Molecule | inhibition in vivo at 5 mg/kg [2, 3] | also measured
14 | 20 nM | CC(Cn1cc[nH]c1=O)c1ccc(OC(F)F)c(OC(F)F)c1 (stereo not shown) [Compound 38] | 76.6% | 
15 | 150 nM | COc1ccc(C(C)Cn2cc[nH]c2=O)cc1OC (stereo not shown) [Compound 76, 1,3-dihydro-1-[2-(3,4-dimethoxyphenyl)propyl]-2H-imidazol-2-one] | 69% | 
16 | 2700 nM | COc1ccc(C(Cn2cc[nH]c2=O)OC)cc1OC (stereo not shown) [Compound 83, 1,3-dihydro-1-[2-(3,4-dimethoxyphenyl)-2-methoxy-ethyl]-2H-imidazol-2-one] | 18.6% | 
17 | 45 nM | COc1ccc(C(C)Cn2cc[nH]c2=O)cc1OCC1CC1 (stereo not shown) [Compound 22, (A)-1-[2-[3-(cyclopropylmethoxy)-4-methoxyphenyl]propyl]-1,3-dihydro-2H-imidazol-2-one] | 83.5% | 
18 | < 10 nM | COc1ccc(C(C)Cn2cc[nH]c2=O)cc1OCC1CC1 (racemic) [Compound 10, (±)-1-[2-[3-(cyclopropylmethoxy)-4-methoxyphenyl]propyl]-1,3-dihydro-2H-imidazol-2-one] | 91.9% | 
19 | 190 nM | CC(Cn1cc[nH]c1=O)c1ccc(OC(F)F)c(OCc2ccccc2)c1 (stereo not shown) [Compound 34] | 31.1% | 
20 | 240 nM | COc1ccc(C(C)Cn2cc[nH]c2=O)cc1OC1CCOC1 (stereo not shown) [Compound 29] |  | inhibition in vivo at 2.5 mg/kg [2, 4]: 90.7%
21 | 1800 nM | 1,3-dihydro-1-[2-(3,4-dimethoxyphenyl)ethyl]-2-methyl-3H-imidazol-2-one [Compound 86] |  | % inhibition of the extravasation of the dye [2, 3]: 39.0%
22 | 460 nM | CCOc1ccc(CCn2cc[nH]c2=O)cc1OCC [Compound 82] | 28.2% | 
23 | 7300 nM | COc1ccc(C(C)Cn2c(C)c[nH]c2=O)cc1OC (stereo not shown) [Compound 77, 1,3-dihydro-1-[2-(3,4-dimethoxyphenyl)propyl]-5-methyl-2H-imidazol-2-one] | 35.8% | 
24 | 9000 nM | COc1ccc(CCN2CCNC2=O)cc1OC [Compound 78, 1-[2-(3,4-dimethoxyphenyl)ethyl]-1,3,4,5-tetrahydro-2H-imidazol-2-one] | 31.3% | 
25 | 140 nM | COc1ccc(C(C)Cn2cc[nH]c2=O)cc1OCC1CCCC1 (stereo not shown) [Compound 32] | 76.2% | 
26 | 1900 nM | COc1ccc(C(O)(Cn2cc[nH]c2=O)c2ccccc2)cc1OC1CCCC1 (racemic) [Compound 8, (±)-1-[2-[3-(cyclopentyloxy)-4-methoxyphenyl]-2-hydroxy-2-phenylethyl]-1,3-dihydro-2H-imidazol-2-one] | 12.4% | 
27 | 3200 nM | COc1ccc(C(C)CN2CCNC2=O)cc1OC (stereo not shown) [Compound 80, 1-[2-(3,4-dimethoxyphenyl)propyl]-1,3,4,5-tetrahydro-2H-imidazol-2-one] | 53.4% | 
28 | 2300 nM | COc1ccc(C(C)Cn2cc[nH]c2=O)cc1OCC1CCCO1 (stereo not shown) [Compound 33] | 65.8% | 
29 | 770 nM | COc1ccc(CCn2cc[nH]c2=O)cc1OC [Compound 79, 1,3-dihydro-1-[2-(3,4-dimethoxyphenyl)ethyl]-2H-imidazol-2-one] | 61.6% | 
30 | 0.7 nM | CC(Cn1ccnc1O)c1ccc(OC(F)F)c(OC2CCCC2)c1 (stereo not shown) [Compound 37] | 75.7% | 
31 | 180 nM | COc1ccc(CCn2cc[nH]c2=O)cc1OC1CCOC1 (stereo not shown) [Compound 35] | 90.1% | 

Source: patent US6403805B1 (Janssen Pharmaceutica N.V., priority 1995, dated 2002)
